EC50 and Emax data for 28 compounds are collected here from patent US10457703B2, “Bile acid derivatives as FXR/TGR5 agonists and methods of use thereof” (ENANTA PHARMACEUTICALS, INC., priority 2015, dated 2019).

The structures appear in SMILES notation. Some results are limits rather than exact numbers.

The test addresses human FXR (NR1H4) (Homo sapiens (Human), UniProt Q96RI1). The test can be described thus: Human FXR (NR1H4) Assay (Gal4 promoter driven luciferase reporter, Indigo Bioscience kit).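 For Efficacy (%): 100% equals the efficacy of CDCA; efficacy normalized to CDCA set as 100%.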 The format is cell-based. The following applies: for EC50: Human FXR (NR1H4) Assay, potency ranges; for Emax: read-out: Efficacy (%). The source says:
ASSAYS Human FXR (NR1H4) Assay
Determination of a ligand mediated Gal4 promoter driven transactivation to quantify ligand binding mediated activation of FXR. FXR Reporter Assay kit purchased from Indigo Bioscience (Catalogue number: IB00601) to determine the potency and efficacy of compound developed by Enanta that can induce FXR activation. The principle application of this reporter assay system is to quantify functional activity of human FXR. The assay utilizes non-human mammalian cells, CHO (Chinese hamster ovary) cells engineered to express human NR1H4 protein (referred to as FXR). Reporter cells also incorporate the cDNA encoding beetle luciferase which catalyzes the substrates and yields photon emission. Luminescence intensity of the reaction is quantified using a plate-reading luminometer, Envision. Reporter Cells include the luciferase reporter gene functionally linked to an FXR responsive promoter. Thus, quantifying changes in luciferase expression in the treated reporter cells provides a sensitive surrogate measure of the changes in FXR activity. […] The assay is according to the manufacturer's instructions. In brief, the assay was performed in white, 96 well plates using final volume of 100 uL containing cells with different doses of compounds. Retrieve Reporter Cells from −80° C. storage. Perform a rapid thaw of the frozen cells by transferring a 10 ml volume of 37° C. cell recovery medium into the tube of frozen cells. Recap the tube of Reporter Cells and immediately place it in a 37° C. water bath for 5-10 minutes. Retrieve the tube of Reporter Cell Suspension from the water bath. Sanitize the outside surface of the tube with a 70% alcohol swab, and then transfer it into the cell culture hood. Dispense 90 μl of cell suspension into each well of the 96-well Assay Plate. Transfer the plate into 37° C. incubator, allowing the cells adherent to the bottom of the well. Dilute compounds in Dilution Plate (DP), and administrate to cells at Assay Plate (AP). DMSO content of the samples was kept at 0.2%. Cells were incubated for additional 22 hours before luciferase activities were measured. Thirty minutes before intending to quantify FXR activity, remove Detection Substrate and Detection Buffer from the refrigerator and place them in a low-light area so that they may equilibrate to room temperature. Remove the plate's lid and discard all media contents by ejecting it into an appropriate waste container. Gently tap the inverted plate onto a clean absorbent paper towel to remove residual droplets. Cells will remain tightly adhered to well bottoms. Add 100 μl of luciferase detection reagent to each well of the assay plate. Allow the assay plate to rest at room temperature for at least 5 minutes following the addition of LDR. Set the instrument (Envision) to perform a single 5 second “plate shake” prior to reading the first assay well. Read time may be 0.5 second (500 mSec) per well.
In general terms: Reporter assays use an easily measured gene product as a stand-in for the process of interest.

human FXR (NR1H4), sequence (Q96RI1 whole entry, the tested form may be a part): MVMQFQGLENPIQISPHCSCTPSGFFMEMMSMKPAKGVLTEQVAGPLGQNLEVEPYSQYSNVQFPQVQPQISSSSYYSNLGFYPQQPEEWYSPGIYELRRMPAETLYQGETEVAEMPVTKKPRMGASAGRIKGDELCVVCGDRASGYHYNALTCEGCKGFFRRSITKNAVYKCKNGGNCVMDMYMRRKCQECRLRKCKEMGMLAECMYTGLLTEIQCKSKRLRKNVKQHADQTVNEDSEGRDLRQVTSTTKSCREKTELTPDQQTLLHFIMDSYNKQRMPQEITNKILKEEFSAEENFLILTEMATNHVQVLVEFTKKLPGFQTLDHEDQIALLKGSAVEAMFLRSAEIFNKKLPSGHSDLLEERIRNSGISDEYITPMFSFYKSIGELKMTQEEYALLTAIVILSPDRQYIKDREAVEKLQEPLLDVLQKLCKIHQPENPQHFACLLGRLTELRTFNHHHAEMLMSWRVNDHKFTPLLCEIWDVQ

In general, EC50 refers to the concentration giving half of the maximal effect. On to `CC[C@H]1[C@@H](O)[C@@H]2[C@H](CC[C@]3(C)[C@@H]([C@H](C)COC(=O)NS(=O)(=O)c4ccc(N5C6CCC5CC6)cc4)CC[C@@H]23)[C@@]2(C)CC[C@@H](O)C[C@@H]12` [Example 44-a], for which the EC50 is < 100 nM and the Emax came out at 182%.

For `CC[C@H]1[C@@H](O)[C@@H]2[C@H](CC[C@]3(C)[C@@H]([C@H](C)CCOC(=O)NCC(C)(C)O)CC[C@@H]23)[C@@]2(C)CC[C@@H](O)C[C@@H]12` [Example 142], the EC50 fell in the range of 100 to 1000 nM and the Emax was found to be 247%.

For `CC[C@H]1[C@@H](O)[C@@H]2[C@H](CC[C@]3(C)[C@@H]([C@H](C)CCOC(=O)N[C@H]4CCC[C@@H]4O)CC[C@@H]23)[C@@]2(C)CC[C@@H](O)C[C@@H]12` [Example 208], the EC50 was 100 to 1000 nM and the Emax came out at 205%.

`CC[C@H]1[C@@H](O)[C@@H]2[C@H](CC[C@]3(C)[C@@H]([C@H](C)CCOC(=O)Nc4ccc5ccccc5c4)CC[C@@H]23)[C@@]2(C)CC[C@@H](O)C[C@@H]12` [Example 197]: the concentration giving a half-maximal response (EC50) fell in the range of 1000 to 10000 nM and the Emax stood at 101%.

As for `CC[C@H]1[C@@H](O)[C@@H]2[C@H](CC[C@]3(C)[C@@H]([C@H](C)CCOC(=O)NC4CC4)CC[C@@H]23)[C@@]2(C)CC[C@@H](O)C[C@@H]12` [Example 123], the EC50 was < 100 nM and the Emax was found to be 379%.

`CC[C@H]1[C@@H](O)[C@@H]2[C@H](CC[C@]3(C)[C@@H]([C@H](C)CCOC(=O)N4CCCCC4)CC[C@@H]23)[C@@]2(C)CC[C@@H](O)C[C@@H]12` [Example 146]: the EC50 was < 100 nM and the Emax came to 223%.

For `CC[C@H]1[C@@H](O)[C@@H]2[C@H](CC[C@]3(C)[C@@H]([C@H](C)CCOC(=O)NCc4ccc(O)cc4)CC[C@@H]23)[C@@]2(C)CC[C@@H](O)C[C@@H]12` [Example 158], the concentration for a half-maximal effect (EC50) was in the range of 100 to 1000 nM and the Emax worked out at 240%.

For the compound `CC[C@H]1[C@@H](O)[C@@H]2[C@H](CC[C@]3(C)[C@@H]([C@H](C)COC(=O)NS(=O)(=O)c4ccc(-c5ccc(OC(F)(F)F)cc5)cc4)CC[C@@H]23)[C@@]2(C)CC[C@@H](O)C[C@@H]12` [Example 33], the EC50 is < 100 nM and the Emax amounted to 266%.

Regarding `CC[C@H]1[C@@H](O)[C@@H]2[C@H](CC[C@]3(C)[C@@H]([C@H](C)COC(=O)NS(=O)(=O)N(C)C)CC[C@@H]23)[C@@]2(C)CC[C@@H](O)C[C@@H]12` [Example 7], the EC50 lay within 1000 to 10000 nM and the Emax amounted to 168%.

For `CC[C@H]1[C@@H](O)[C@@H]2[C@H](CC[C@]3(C)[C@@H]([C@H](C)CCOC(=O)N(CC)CC)CC[C@@H]23)[C@@]2(C)CC[C@@H](O)C[C@@H]12` [Example 163], the EC50 is 100 to 1000 nM and the Emax came out at 266%.

For `CC[C@H]1[C@@H](O)[C@@H]2[C@H](CC[C@]3(C)[C@@H]([C@H](C)CCOC(=O)NCCN4CCOCC4)CC[C@@H]23)[C@@]2(C)CC[C@@H](O)C[C@@H]12` [Example 151], the EC50 was in the range of 100 to 1000 nM and the Emax was 253%.

Regarding `CC[C@H]1[C@@H](O)[C@@H]2[C@H](CC[C@]3(C)[C@@H]([C@H](C)COC(=O)NS(=O)(=O)c4ccc(N5CCC(F)(F)CC5)cc4)CC[C@@H]23)[C@@]2(C)CC[C@@H](O)C[C@@H]12` [Example 21], the EC50 was < 100 nM and the Emax was determined as 225%.

As to `CC[C@H]1[C@@H](O)[C@@H]2[C@H](CC[C@]3(C)[C@@H]([C@H](C)CCOC(=O)NC4CCC4)CC[C@@H]23)[C@@]2(C)CC[C@@H](O)C[C@@H]12` [Example 133], the EC50 is < 100 nM and the Emax came out at 283%.

Consider `CC[C@H]1[C@@H](O)[C@@H]2[C@H](CC[C@]3(C)[C@@H]([C@H](C)CCOC(=O)NCCCCCO)CC[C@@H]23)[C@@]2(C)CC[C@@H](O)C[C@@H]12` [Example 174], for which the EC50 was < 100 nM and the Emax worked out at 228%.

For `CC[C@H]1[C@@H](O)[C@@H]2[C@H](CC[C@]3(C)[C@@H]([C@H](C)CCOC(=O)NCCc4ccccn4)CC[C@@H]23)[C@@]2(C)CC[C@@H](O)C[C@@H]12` [Example 186], the EC50 lay within 100 to 1000 nM and the Emax worked out at 373%.

For the compound `CC[C@H]1[C@@H](O)[C@@H]2[C@H](CC[C@]3(C)[C@@H]([C@H](C)CCOC(=O)NS(=O)(=O)c4ccc(OC)c(F)c4)CC[C@@H]23)[C@@]2(C)CC[C@@H](O)C[C@@H]12` [Example 94], the EC50 was < 100 nM and the Emax came out at 268%.

Regarding `CC[C@H]1[C@@H](O)[C@@H]2[C@H](CC[C@]3(C)[C@@H]([C@H](C)CCOC(=O)NS(=O)(=O)c4ccccc4OC)CC[C@@H]23)[C@@]2(C)CC[C@@H](O)C[C@@H]12` [Example 84], the EC50 was < 100 nM and the Emax was 270%.

With `CC[C@H]1[C@@H](O)[C@@H]2[C@H](CC[C@]3(C)[C@@H]([C@H](C)COC(=O)NS(=O)(=O)c4ccc(-n5ccnc5)cc4)CC[C@@H]23)[C@@]2(C)CC[C@@H](O)C[C@@H]12` [Example 44-h], the EC50 is 100 to 1000 nM and the Emax stood at 194%.

With `CC[C@H]1[C@@H](O)[C@@H]2[C@H](CC[C@]3(C)[C@@H]([C@H](C)COC(=O)NS(=O)(=O)N4CCCC4)CC[C@@H]23)[C@@]2(C)CC[C@@H](O)C[C@@H]12` [Example 13], the EC50 was in the range of 100 to 1000 nM and the Emax worked out at 324%.

Regarding `CC[C@H]1[C@@H](O)[C@@H]2[C@H](CC[C@]3(C)[C@@H]([C@H](C)CCCOC(=O)NS(C)(=O)=O)CC[C@@H]23)[C@@]2(C)CC[C@@H](O)C[C@@H]12` [Example 113], the EC50 lay within 1000 to 10000 nM and the Emax worked out at 130%.

On to `CC[C@H]1[C@@H](O)[C@@H]2[C@H](CC[C@]3(C)[C@@H]([C@H](C)CCOC(=O)NS(=O)(=O)CC)CC[C@@H]23)[C@@]2(C)CC[C@@H](O)C[C@@H]12` [Example 98], for which the EC50 was in the range of 100 to 1000 nM and the Emax was determined as 279%.

For `CC[C@H]1[C@@H](O)[C@@H]2[C@H](CC[C@]3(C)[C@@H]([C@H](C)CCOC(=O)N4CC(=O)N(Cc5ccccc5)S4(=O)=O)CC[C@@H]23)[C@@]2(C)CC[C@@H](O)C[C@@H]12` [Example 109], the EC50 is 1000 to 10000 nM and the Emax was 142%.

Regarding `CC[C@H]1[C@@H](O)[C@@H]2[C@H](CC[C@]3(C)[C@@H]([C@H](C)CCOC(=O)NS(=O)(=O)c4ccccc4OC(F)(F)F)CC[C@@H]23)[C@@]2(C)CC[C@@H](O)C[C@@H]12` [Example 77], the EC50 is 100 to 1000 nM and the Emax came to 383%.

Turning to `CC[C@H]1[C@@H](O)[C@@H]2[C@H](CC[C@]3(C)[C@@H]([C@H](C)COC(=O)NS(=O)(=O)C4CCCCC4)CC[C@@H]23)[C@@]2(C)CC[C@@H](O)C[C@@H]12` [Example 8], the EC50 lay within 100 to 1000 nM and the Emax worked out at 327%.

Take `CC[C@H]1[C@@H](O)[C@@H]2[C@H](CC[C@]3(C)[C@@H]([C@H](C)CCCOC(=O)N4CCC(N5CCCCC5)CC4)CC[C@@H]23)[C@@]2(C)CC[C@@H](O)C[C@@H]12` [Example 148]: the EC50 lay in the range of 1000 to 10000 nM and the Emax was 37%.

In the case of `CC[C@H]1[C@@H](O)[C@@H]2[C@H](CC[C@]3(C)[C@@H]([C@H](C)COC(=O)NS(=O)(=O)c4ccc(N5CCOCC5)cc4)CC[C@@H]23)[C@@]2(C)CC[C@@H](O)C[C@@H]12` [Example 19], the EC50 is < 100 nM and the Emax stood at 219%.

For the compound `CC[C@H]1[C@@H](O)[C@@H]2[C@H](CC[C@]3(C)[C@@H]([C@H](C)CCOC(=O)NC4CCCC4O)CC[C@@H]23)[C@@]2(C)CC[C@@H](O)C[C@@H]12` (some centres unmarked) [Example 195], the EC50 is < 100 nM and the Emax was found to be 288%.

`CC[C@H]1[C@@H](O)[C@@H]2[C@H](CC[C@]3(C)[C@@H]([C@H](C)CCOC(=O)NS(=O)(=O)c4ccc5c(c4)CCCC5)CC[C@@H]23)[C@@]2(C)CC[C@@H](O)C[C@@H]12` [Example 89]: the EC50 was < 100 nM and the Emax worked out at 278%.
